Some results are limits rather than exact numbers.

Sequence of SRPK1 (Q96SB4 whole entry): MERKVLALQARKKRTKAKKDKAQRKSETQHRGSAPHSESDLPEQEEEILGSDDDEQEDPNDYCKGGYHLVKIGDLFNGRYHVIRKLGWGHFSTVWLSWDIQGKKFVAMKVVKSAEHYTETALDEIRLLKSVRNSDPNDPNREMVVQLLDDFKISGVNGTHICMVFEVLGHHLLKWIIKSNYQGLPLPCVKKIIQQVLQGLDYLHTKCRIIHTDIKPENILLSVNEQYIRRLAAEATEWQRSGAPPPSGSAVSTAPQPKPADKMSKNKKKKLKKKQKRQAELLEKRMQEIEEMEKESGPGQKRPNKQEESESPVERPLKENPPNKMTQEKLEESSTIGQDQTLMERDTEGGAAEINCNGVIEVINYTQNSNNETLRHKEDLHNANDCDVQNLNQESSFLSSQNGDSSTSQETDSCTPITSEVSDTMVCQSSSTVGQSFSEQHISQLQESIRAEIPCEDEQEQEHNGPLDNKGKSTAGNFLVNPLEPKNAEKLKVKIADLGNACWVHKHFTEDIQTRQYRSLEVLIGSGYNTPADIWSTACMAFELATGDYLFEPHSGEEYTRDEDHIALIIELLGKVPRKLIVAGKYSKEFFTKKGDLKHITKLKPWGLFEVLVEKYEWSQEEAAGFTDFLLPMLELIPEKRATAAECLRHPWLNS

In this experiment the target is SRPK1 (Homo sapiens, UniProt Q96SB4). The experiment is described as follows: SRPK1 assay, Method 1 (ADP-Glo luminescence). The experiment is classed as biochemical. Particulars: Method 1 (no asterisk): substrate Human SRSF1/SF2, 25° C. for 90 min, test compounds 30 μM top, 3-fold, duplicate. The procedure:
The SPRK1 assay was performed as follows:
Method 1: The assay buffer was prepared. The reference compound was diluted to 10 mM. The test compounds were prepared at a concentration of 30 mM. Fifteen nL of compounds/DMSO were transferred to a multi-well plate. Then, 7.5 ul enzyme SRPK1 was added to each well, the plate was spun down at 1000 rpm and centrifuged for 30 sec. Then, 7.5 ul substrate Human SRSF1/SF2 was added to each well, the plate spun down at 1000 rpm and centrifuged for 30 sec. The plate was then incubated at 25° C. for 90 min. After 90 min, 5 μl of ADP-Glo™ Reagent was added to each well and the plate incubated at room temperature for 60 minutes. Then, 10 μl of Kinase Detection Reagent was added to each well and the plate incubate at room temperature for 60 minutes. The luminescence of each well was recorded on Envision. The test compounds were at 30 μM top, 3-fold, in duplicate, and the final concentration of DMSO was 0.1%.
All assays were performed using Method 1, except where indicated with an asterisk (*) in the below table, indicating Method 2 was used.
On the technique in general: In ADP-Glo the light output rises with the ADP produced.
The compound `CC(=O)OC1CCN(c2ncc(C3CC3)cc2NC(=O)c2ccc(C3CCOCC3)o2)CC1` [Compound 028] displayed an IC50 of 105 nM.

Consider `O=C(Nc1cc(C(F)(F)F)cnc1N1CCC(O)CC1)c1cccnc1` [Compound 051], for which the IC50 is greater than 30000 nM.

On to `Cn1cc(-c2ncc(C(F)(F)F)cc2NC(=O)c2ccc(C3CCOCC3)o2)cn1` [Compound 011], for which the IC50 turned out to be 7490 nM.

On to `C[C@@H]1C[C@H](O)CCN1c1ncc(C2CC2)cc1NC(=O)c1ccc(-c2cn[nH]c2)o1` [Compound 127], for which the IC50 was greater than 30000 nM. For `O=C(Nc1cc(C(F)(F)F)cnc1N1CCC(O)CC1)c1ccc(-c2cc[nH]n2)o1` [Compound 084], the IC50 stood at 60.7 nM. Next, `CC1C[C@@H](O)CCN1c1ncc(C(F)(F)F)cc1NC(=O)c1ccc(-c2ccncc2)o1` (stereo in doubt) [Compound 080, N-(2-((2S,4S)-4-hydroxy-2-methylpiperidin-1-yl)-5-(trifluoromethyl)pyridin-3-yl)-5-(pyridin-4-yl) furan-2-carboxamide]: 344 nM. In the case of `O=C(Nc1cc(C(F)(F)F)cnc1N1CCS(=O)(=O)CC1)c1ccc(C2CCOCC2)o1` [Compound 042] it was greater than 30000 nM; in that of `O=C(Nc1cc(C(F)(F)F)cnc1C1CCNCC1)c1ccc(C2CCOCC2)o1` [Compound 062], greater than 30000 nM; in that of `O=C(Nc1cc(C(F)(F)F)cnc1N1CCC(O)CC1)c1ccc(-c2nc[nH]n2)o1` [Compound 105], 1530 nM. `O=C(Nc1cc(C(F)(F)F)cnc1N1CCC(O)C1)c1ccc(C2CCOCC2)o1` (stereo not shown) [Compound 035] showed an IC50 greater than 30000 nM. `CNC(=O)C1(C)CCN(c2ncc(C(F)(F)F)cc2NC(=O)c2ccc(C3CCOCC3)o2)CC1` [Compound 057] yielded an IC50 of 30.5 nM.

As for `CN1CCN(c2ncc(C(F)(F)F)cc2NC(=O)c2ccc(-c3ccncc3)o2)CC1` [Compound 003], half-maximal inhibition (IC50) was put at 971 nM. Next, `O=C(Nc1cc(C(F)(F)F)cnc1N1CCC(O)CC1)c1ccccn1` [Compound 047]: 260 nM; `O=C(Nc1cc(C(F)(F)F)cnc1N1CCc2[nH]ncc2C1)c1ccc(-c2cn[nH]c2)o1` [Compound 123]: greater than 30000 nM. Next, `O=C(Nc1cc(C(F)(F)F)cnc1N1CC(O)C1)c1ccc(C2CCOCC2)o1` [Compound 039]: greater than 30000 nM; `C#Cc1ccc(C(=O)Nc2cc(C(F)(F)F)cnc2N2CCC(O)CC2)o1` [Compound 117]: greater than 30000 nM. Next, `O=C(Nc1cc(C(F)(F)F)cnc1N1CCC(O)CC1)c1ccc(C2CCNCC2)o1` [Compound 061]: 8200 nM.

In turn, `COc1ccc(C(=O)Nc2cc(C(F)(F)F)cnc2N2CCC(O)CC2)nc1` [Compound 090] showed an IC50 of 1380 nM. For the compound `C[C@@H]1C[C@H](O)CCN1c1ncc(C(F)(F)F)cc1NC(=O)c1ccc(-c2cn[nH]c2)o1` [Compound 110], 16.1 nM corresponded to half-maximal inhibition (IC50). Next, `O=C(Nc1cc(C(F)(F)F)cnc1N1CCC(O)CC1)c1ccc(C2CCOCC2)o1` [Compound 005]: 41.9 nM.

As to `O=C(Nc1cc(C(F)(F)F)cnc1N1CCC(O)CC1)c1cc(-c2cn[nH]c2)ccn1` [Compound 094, N-[2-(4-hydroxy-1-piperidyl)-5-(trifluoromethyl)-3-pyridyl]-4-(1H-pyrazol-4-yl)pyridine-2-carboxamide], the IC50 was greater than 30000 nM.

`C[C@H]1C[C@H](O)CCN1c1ncc(C(F)(F)F)cc1NC(=O)c1ccc(C2CCOCC2)o1` [Compound 076] gave an IC50 of 14.2 nM. This lies in the double-digit nanomolar range.

`CC1(O)CCN(c2ncc(C3CC3)cc2NC(=O)c2ccc(-c3ccncc3)o2)CC1` [Compound 136, N-(5-cyclopropyl-2-(4-hydroxy-4-methylpiperidin-1-yl)pyridin-3-yl)-5-(pyridin-4-yl) furan-2-carboxamide] came in with an IC50 of 36 nM. Against the preceding compound, the IC50 is about 2.5-fold higher. In the case of `C[C@H]1C[C@@H](O)CCN1c1ncc(C(F)(F)F)cc1NC(=O)c1ccc(C2CCOCC2)o1` [Compound 075] it was 13.1 nM. Next, `C[C@@H]1C[C@@H](O)CCN1c1ncc(C2CC2)cc1NC(=O)c1ccc(-c2cc(N)nc(N)c2)o1` [Compound 134]: greater than 30000 nM; `C[C@@H]1C[C@@H](O)CCN1c1ncc(C(F)(F)F)cc1NC(=O)c1ccc(-c2ccnc(N)c2)o1` [Compound 114]: greater than 30000 nM. Next, `C[C@@H]1C[C@H](O)CCN1c1ncc(C2CC2)cc1NC(=O)c1ccc(Br)o1` [Compound 126]: greater than 30000 nM; `O=C(Nc1cc(C(F)(F)F)cnc1N1CCC(O)CC1)c1ccc(Cl)cn1` [Compound 093]: 1260 nM.

With `Nc1cc(-c2ccc(C(=O)Nc3cc(C4CC4)cnc3N3CCc4[nH]ncc4C3)o2)ccn1` [Compound 122], the IC50 is greater than 30000 nM. Next, `O=C(Nc1cc(C(F)(F)F)cnc1N1CCC(O)CC1)c1ccc(-c2cn[nH]c2)cc1` [Compound 129]: greater than 30000 nM; `COC(=O)C1(C)CCN(c2ncc(C(F)(F)F)cc2NC(=O)c2ccc(C3CCOCC3)o2)CC1` [Compound 032, methyl 4-methyl-1-[3-[(5-tetrahydropyran-4-ylfuran-2-carbonyl)amino]-5-(trifluoromethyl)-2-pyridyl]piperidine-4-carboxylate]: 114 nM; `O=C1C=C(c2ccc(C(=O)Nc3cc(C(F)(F)F)cnc3N3CCC(O)CC3)o2)CCO1` [Compound 102]: 340 nM. Next, `CC1(O)CCN(c2ncc(Cl)cc2NC(=O)c2ccc(C3CCOCC3)o2)CC1` [Compound 025]: 170 nM. In the case of `CN1CCC(c2ccc(C(=O)Nc3cc(C(F)(F)F)cnc3N3CCC(O)CC3)o2)CC1` [Compound 066, N-[2-(4-hydroxy-1-piperidyl)-5-(trifluoromethyl)-3-pyridyl]-5-(1-methyl-4-piperidyl) furan-2-carboxamide] it was greater than 30000 nM; in that of `C[C@@H]1C[C@H](O)CCN1c1ncc(C(F)(F)F)cc1NC(=O)c1ccc(-c2ccnc(N)c2)o1` [Compound 111], 39.4 nM. For `O=C(Nc1cc(C(F)(F)F)cnc1N1CCC(O)CC1)c1ccc(F)cn1` [Compound 089], the IC50 is 878 nM. Next, `CC1(O)CCN(c2ncc(C3CC3)cc2NC(=O)c2ccc(C3CCOCC3)o2)CC1` [Compound 137, N-(5-Cyclopropyl-2-(4-hydroxy-4-methylpiperidin-1-yl)pyridin-3-yl)-5-(tetrahydro-2H-pyran-4-yl) furan-2-carboxamide]: 210 nM; `Nc1cc(-c2ccc(C(=O)Nc3cc(C(F)(F)F)cnc3N3CCc4[nH]ncc4C3)o2)cc(N)n1` [Compound 130]: greater than 30000 nM; `Nc1cc(-c2ccc(C(=O)Nc3cc(C4CC4)cnc3N3CCc4[nH]ncc4C3)o2)cc(N)n1` [Compound 131]: greater than 30000 nM.

As to `CC(=O)OC1CCN(c2ncc(C3CC3)cc2NC(=O)c2ccc(-c3ccncc3)o2)CC1` [Compound 033, 1-(5-cyclopropyl-3-(5-(pyridin-4-yl)furan-2-carboxamido)pyridin-2-yl) piperidin-4-yl acetate], the IC50 turned out to be 202 nM. In the case of `O=C(Nc1cc(C(F)(F)F)cnc1N1CCCC(O)C1)c1ccc(C2CCOCC2)o1` (stereo not shown) [Compound 072] it was 754 nM; in that of `O=C(Nc1cc(C(F)(F)F)cnc1-c1ccncc1)c1ccc(C2CCOCC2)o1` [Compound 010], 8240 nM; in that of `O=C(Nc1cc(C(F)(F)F)cnc1N1CCC(O)CC1)c1ccc(-c2cnccn2)o1` [Compound 074, N-(2-(4-hydroxypiperidin-1-yl)-5-(trifluoromethyl)pyridin-3-yl)-5-(pyrazin-2-yl) furan-2-carboxamide], 641 nM. For `O=C(Nc1cc(C(F)(F)F)cnc1-c1cn[nH]c1)c1ccc(C2CCOCC2)o1` [Compound 012], the IC50 worked out at 109 nM. This IC50 lies about 5.9-fold lower than the previous one. Next, `O=C(Nc1cc(C(F)(F)F)cnc1-c1cn[nH]c1)c1ccc(-c2ccncc2)o1` [Compound 014]: greater than 30000 nM; `CC(=O)OC1CC2(CCN(c3ncc(C(F)(F)F)cc3NC(=O)c3ccc(C4CCOCC4)o3)CC2)C1` [Compound 059]: 78.7 nM. Next, `O=C(Nc1cc(Cl)cnc1N1CCC(O)CC1)c1ccc(C2CCOCC2)o1` [Compound 007]: 252 nM.

Take `O=C(Nc1cc(C(F)(F)F)cnc1N1CCC(O)(C(F)(F)F)CC1)c1ccc(-c2ccncc2)o1` [Compound 064]: the IC50 was 249 nM. Consider `O=C(Nc1cc(C(F)(F)F)cnc1N1CCC2(CCOC2=O)CC1)c1ccc(C2CCOCC2)o1` [Compound 082], for which the IC50 was 55.5 nM. Compound `O=C(Nc1cc(C2CC2)cnc1N1CCC(O)CC1)c1ccc(-c2ccnc(F)c2)o1` [Compound 023] came in with an IC50 of 55.1 nM. The IC50 values of the last two compounds are within 1.5-fold of each other. In turn, `C[C@@H]1C[C@@H](O)CCN1c1ncc(C(F)(F)F)cc1NC(=O)c1ccc(-c2cn[nH]c2)o1` [Compound 113] yielded an IC50 greater than 30000 nM.

`O=C(Nc1cc(C(F)(F)F)cnc1N1CCSCC1)c1ccc(C2CCOCC2)o1` [Compound 041] gave an IC50 greater than 30000 nM. In the case of `O=C1CC2(CCN(c3ncc(C(F)(F)F)cc3NC(=O)c3ccc(C4CCOCC4)o3)CC2)C1` [Compound 065, N-(2-(2-oxo-7-azaspiro[3.5]nonan-7-yl)-5-(trifluoromethyl)pyridin-3-yl)-5-(tetrahydro-2H-pyran-4-yl) furan-2-carboxamide] it was 204 nM; in that of `O=C(Nc1cc(C(F)(F)F)cnc1N1CCC(O)CC1)c1cccc(-c2cn[nH]c2)n1` [Compound 100], 59.7 nM. In the case of `CC(=O)OC1CCN(c2ncc(C(F)(F)F)cc2NC(=O)c2ccc(C(F)(F)F)cn2)CC1` [Compound 068] it was greater than 30000 nM.

A word on the IC50: it is the concentration that inhibits the measured activity by half. Higher therefore signals weaker potency.

Source of the values: patent US20260217693A1, “SRPK1 INHIBITORS AND METHODS OF USE” (ALLIANTHERA (SUZHOU) BIOPHARMACEUTICAL CO., LTD., priority 2023, published 2026).
